What all share (assay type): cell-based, human
Experiment [1] relates to stress granules (FUS, eIF3, G3BP1) in HeLa Kyoto, HeLa BAC FUS-GFP and iPS FUS-GFP cells. The experiment can be described thus: Screen for compounds altering FUS, eIF3 and G3BP1 levels in stress granules of arsenate-stressed cells (Example 1). The note with it: compound 1 μM, 5 μM or 25 μM for one hour, then 2 mM Potassium Arsenate 1 hour; confocal fluorescence imaging; FIGS. 1-4. From the text:
Stress granules are condensates that form in the cytoplasm of cells under stress. Multiple proteins are known to be concentrated in stress granules, including FUS, eukaryotic initiation factor 3 (eIF3), and G3BP1. FUS is involved in pre-mRNA maturation, and various mutations in FUS have been associated with ALS. Although FUS is found in stress granules, it is not believed to be critical for formation of stress granules. Like FUS, eIF3 is also not believed to be critical for formation of stress granules. As the name indicates, eIF3 is a eukaryotic initiation factor, but it is also involved in translational recycling. By contrast, G3BP1 is believed to initiate formation of stress granules and is potentially critical to maintaining their structure. G3BP1 is an RNA binding protein and an element of the Ras signaling transduction pathway. These three proteins were tracked within cells to determine if compounds could preferentially exclude one of these proteins from stress granules without dissolving the stress granule.
(§1) Three cell lines (HeLa Kyoto, HeLa comprising a bacterial artificial chromosome (BAC) encoding FUS-GFP, and induced pluripotent stem cells (iPS) expressing FUS-GFP) were separately grown in culture. 1200 compounds from a compound library were exposed individually at concentrations of 1 μM, 5 μM, or 25 μM to one of the cell lines for one hour. For some compounds, this procedure was repeated for one or both of the other cell lines. Cells that were not exposed to the compounds (DMSO-only vehicle treatment) were used as controls. The cells were then exposed to arsenate stress for 1 hour to stimulate the formation of stress granules, using a final concentration of 2 mM Potassium Arsenate (Sigma A6631, diluted in PBS).
(§2) After stress treatment, the cells were fixed with a final concentration of 3.7% Formaldehyde (FA) for 15 minutes at room temperature. Subsequently, cells were washed using a plate washer, permeabilized (10 min at RT using 0.1% Triton X/PBS) and blocked (30 min with 0.2% Fish skin gelatin/PBS). For cells expressing FUS-GFP, GFP fluorescence was observed directly. For the other protein markers of interest a combination of anti-FUS (Sigma AMAb90549; 1:500), anti-eIF3 (Santa Cruz sc-137214; 1:500), and anti-G3BP1 (Invitrogen PA5-29455; 1:4000) antibodies and appropriate secondary antibodies (Life Technologies; Alexa 594 and 647) was applied to visualize FUS, eIF3, and G3BP1 protein in the cells.
(§3) A spinning disk confocal microscope was used to acquire images of the samples using confocal fluorescence at 405/488/561/640 nm. 40× air objective lenses were used to capture the images. The gain was set to 1.4 and binning to 1. The exposure times were adjusted to the fluorescence emission intensity specific for each label. Exposure times ranged from 100-300 ms. Appropriate filter settings were used, matching the excitation and emission spectra of the label. Image acquisition was automated, and the resulting data were analyzed using KNIME (Berthold et al., 2008, Data Analysis, Machine Learning and Applications. Studies in Classification, Data Analysis, and Knowledge Organization. Springer, Berlin, Heidelberg) and CellProfiler (Carpenter et al., 2006, Genome Biol 7:R100). Twenty-five imaging parameters were extracted for each image, including marker signal droplet count, area, shape, etc. For each imaging parameter, the Z′ factor for the entire plate was calculated according to the following formula: Z′=1−[3*(SD(pos)+SD(neg))/(Avg(pos)−Avg(neg))] where SD(pos) is the standard deviation of the positive control, SD(neg) is the standard deviation of the negative control, Avg(pos) is the average of the positive control and Avg(neg) is the average of the negative control.
In addition, z-scores were calculated for every test compound using the formula: z=(x−x)/S where x is the mean of the sample, and S is the standard deviation of the sample. […] Results

For experiment [2] the test system is unchanged. The experiment can be described thus: Screen for macromolecule and tissue specificity on stress granules of arsenate-stressed cells (Example 2). The note with it: compound 1 μM, 5 μM or 25 μM for one hour, then 2 mM Potassium Arsenate 1 hour; confocal fluorescence imaging; FIGS. 5-10. The protocol:
as §1, with “In brief, three” for “Three”, “lines. […]” for “lines.”
as §2
as §3, with “40× (primary screen) and 20× (potency testing)” for “40×”, “Heidelberg),” for “Heidelberg) and”, “7:R100); or, for potency testing, data were analyzed using Harmony (PerkinElmer, Waltham MA) and Vault (Collaborative Drug Discovery, Burlingame CA).” for “7:R100).”
In addition, z-scores were calculated for every test compound using the formula: z=(x−x)/S where x is the mean of the sample, and S is the standard deviation of the sample.

Experiment [3] has as its system stress granules of stressed HeLa cells carrying BAC FUS-GFP. Description: Dose-response / potency testing for FUS, eIF3 and G3BP1 in stress granules (FIG. 11). The following applies: 0.0021-30 μM, number of cytoplasmic drops per cell, four parameter logistic fit. From the text:
FIG. 11 is a plot of dose-response curves for FUS, eIF3, and G3BP1 in stress granules of stressed HeLa cells carrying BAC FUS-GFP treated with YM155.
The methods used in this example were similar to those discussed in Example 1. In brief, three cell lines (HeLa Kyoto, HeLa comprising a bacterial artificial chromosome (BAC) encoding FUS-GFP, and induced pluripotent stem cells (iPS) expressing FUS-GFP) were separately grown in culture. 1200 compounds from a compound library were exposed individually at concentrations of 1 μM, 5 μM, or 25 μM to one of the cell lines for one hour. For some compounds, this procedure was repeated for one or both of the other cell lines. […]
A spinning disk confocal microscope was used to acquire images of the samples using confocal fluorescence at 405/488/561/640 nm. […] The exposure times were adjusted to the fluorescence emission intensity specific for each label. […] Image acquisition was automated, and the resulting data were analyzed using KNIME (Berthold et al., 2008, Data Analysis, Machine Learning and Applications. Studies in Classification, Data Analysis, and Knowledge Organization. Springer, Berlin, Heidelberg), CellProfiler (Carpenter et al., 2006, Genome Biol 7:R100); or, for potency testing, data were analyzed using Harmony (PerkinElmer, Waltham MA) and Vault (Collaborative Drug Discovery, Burlingame CA). […]

On to `COc1cc(N2CCC(N)CC2)ccc1Nc1ncc(Cl)c(-c2c[nH]c3ccccc23)n1` [AZD3463], for which the “Selective and Non-Selective Condensate Disrupters (selectivity of exclusion of FUS, eIF3, G3BP1 from stress granules)” value in experiment [1] is on record as “FUS-selective”.
As to `COc1cc(CCc2cc(NC(=O)c3ccc(N4C[C@@H](C)N[C@@H](C)C4)cc3)n[nH]2)cc(OC)c1` [AZD4547], the “Selective and Non-Selective Condensate Disrupters (selectivity of exclusion of FUS, eIF3, G3BP1 from stress granules)” value in experiment [1] is listed as “Non-selective”.
As for `CNC(=O)CN1CCC(Oc2cc3c(Nc4cccc(Cl)c4F)ncnc3cc2OC)CC1` [AZD8931], the “Selective and Non-Selective Condensate Disrupters (selectivity of exclusion of FUS, eIF3, G3BP1 from stress granules)” value in experiment [1] was “eIF3-selective”.
Turning to `CC1(C)CCC2=C(O1)c1ccccc1C(=O)C2=O` [Beta-Lapachone], in experiment [1], the “Selective and Non-Selective Condensate Disrupters (selectivity of exclusion of FUS, eIF3, G3BP1 from stress granules)” value is “eIF3-selective”. Moreover, the “Selectivity (Selective and Non-Selective Condensate Disrupters)” value in experiment [2] is recorded as “eIF3-selective”.
For the compound `Cn1cc(C2=C(c3cn(CCCSC(=N)N)c4ccccc34)C(=O)NC2=O)c2ccccc21` [Bisindolylmaleimide IX], the “Selectivity (Selective and Non-Selective Condensate Disrupters)” value in experiment [2] is “eIF3-selective”.
Regarding `C[C@H]1CCC/C=C/[C@@H]2C[C@H](O)C[C@H]2[C@H](O)/C=C/C(=O)O1` [Brefeldin A], the “Selective and Non-Selective Condensate Disrupters (selectivity of exclusion of FUS, eIF3, G3BP1 from stress granules)” value in experiment [1] is reported as “FUS-selective”.
For the compound `COc1cc2c(Oc3ccc4[nH]c(C)cc4c3F)ncnc2cc1OCCCN1CCCC1` [Cediranib], the “Selectivity (Selective and Non-Selective Condensate Disrupters)” value in experiment [2] was “eIF3 and FUS- selective”.
Regarding `Cc1cc2cc3ccc(N(C)C)cc3nc2cc1N` [Coriphosphine O], the “Selectivity (Selective and Non-Selective Condensate Disrupters)” value in experiment [2] is “FUS-selective”.
Consider `O=C(O)CCc1ccc(NCc2cccc(Oc3ccccc3)c2)cc1` [GW9508], for which the “Selective and Non-Selective Condensate Disrupters (selectivity of exclusion of FUS, eIF3, G3BP1 from stress granules)” value in experiment [1] is “FUS-selective”.
Take `O=C(c1ccc(F)cc1)C1CCN(CCn2c(=O)[nH]c3ccccc3c2=O)CC1` [Ketanserin]: in experiment [1], the “Selective and Non-Selective Condensate Disrupters (selectivity of exclusion of FUS, eIF3, G3BP1 from stress granules)” value is reported as “FUS-selective”.
Regarding `NC(=O)CCCCC1CCSS1` (stereo not drawn) [Lipoamide], the “Selective and Non-Selective Condensate Disrupters (selectivity of exclusion of FUS, eIF3, G3BP1 from stress granules)” value in experiment [1] is “Non-selective”. For the same compound, in experiment [2], the “Selectivity (Selective and Non-Selective Condensate Disrupters)” value was “Non-selective”.
Consider `Cc1ccc(NC(=O)c2ccc(CN3CCN(C)CC3)cc2)cc1Nc1nc(-c2cccnc2)cs1` [Masitinib], for which the “Selectivity (Selective and Non-Selective Condensate Disrupters)” value in experiment [2] was “FUS protein and iPSC cell selective”.
On to `COc1ncc(-c2ccc3nccc(-c4ccnnc4)c3c2)cc1NS(=O)(=O)c1ccc(F)cc1F` [Omipalisib], for which the “Selective and Non-Selective Condensate Disrupters (selectivity of exclusion of FUS, eIF3, G3BP1 from stress granules)” value in experiment [1] is listed as “Non-selective”.
In the case of `COc1ccc(-c2cc3c(C)nc(N)nc3n(C3CCC(OCCO)CC3)c2=O)cn1` (stereo not drawn) [PF-04691502], the “Selectivity (Selective and Non-Selective Condensate Disrupters)” value in experiment [2] is reported as “Non-selective”.
For `Cc1cnc(Nc2ccc(N3CCN(C)CC3)cc2)nc1Nc1cccc(S(=O)(=O)NC(C)(C)C)c1` [TG101209], the “Selective and Non-Selective Condensate Disrupters (selectivity of exclusion of FUS, eIF3, G3BP1 from stress granules)” value in experiment [1] is “Non-selective”. The “Selectivity (Selective and Non-Selective Condensate Disrupters)” value in experiment [2] was “Non-selective”.
As to `COCCn1c2c([n+](Cc3cnccn3)c1C)C(=O)c1ccccc1C2=O.[Br-]` [YM155 (Sepantronium Bromide), Sepantronium Bromide], the “Selective and Non-Selective Condensate Disrupters (selectivity of exclusion of FUS, eIF3, G3BP1 from stress granules)” value in experiment [1] is listed as “eIF3-selective”. In addition, in experiment [2], the “Selectivity (Selective and Non-Selective Condensate Disrupters)” value is “eIF3-selective”. Also, the “potency (similar to IC50) for exclusion of a specific protein from stress granules relative to others” value in experiment [3] is “exclusion of eIF3 at lower concentration of compound relative to FUS and G3BP1”.

(Values after patent US12422437B2, “Methods of screening for condensate-associated specificity and uses thereof” (Dewpoint Therapeutics, Inc., priority 2019, dated 2025).)
